Measurements as given in US20040029965A1, “Formulations for reducing or eliminating toxicity of enviromental hormones containing ursodeoxycholic acid” (priority 2000, published 2004).

What was measured:
Assay type in all cases: in vivo
C57B1/6J mice [1] = assay: Johnsen's score of the testis tissue (level of spermatogenesis); settings: score 10 to 1
Procedure: (§1) 2,3,7,8-tetrachlorodibenzo-p-dioxin (TCDD) dissolved in toluene (purity of 95% or more as a result of gas chromatography analysis), manufactured by Chem. Services Inc. in USA, was volatilized with nitrogen to obtain powder. The obtained powder was dissolved in a mixed solvent containing acetone and corn oil with a volume ratio of 1:6. The resulting solution each containing 110, 27.5 and 6.9 μg/kg of TCDD was subcutaneously injected to mice at a volume of 5 ml per body weight. […] The mice were supplied with the feed from 10 days before (pre-administration) to 60 days after administration of TCDD (post-administration).
Upon completion of the experiment for 60 days, the experimental animals were fasted for 24 hours and anesthetized with ether. Then, they were abdominally incised and blood was gathered from abdominal vena cava. They were sacrificed by the release of blood. Liver, kidneys, testes and epididymides were extracted and all the extracted organs were weighed. Only the testes were separately kept and observed under optical and electron microscopes. For biochemical finding test, serum was separated from blood with a centrifuge and the separated serum was analyzed with an automated blood biochemical analyzer, Dimension (Dupont, USA). Blood was put to another blood gathering bottle and then, analyzed with an automated blood cell analyzer, Celldyn (Abbott, USA).
The extracted testes were fixed in 10% neutralized formalin buffer for 24 hours and washed with the flowing water. It was subsequently dehydrated with ethanol and cleared with xylene and then, embedded with paraffin. It was sectioned with microtome (microm is HM 440E) to a thickness of 2-3 μm and then, double stained with hematoxylin and eosin to observe under an optical microscope.
For evaluation of the level of spermatogenesis, Johnsen's score was determined from 10 to 1 based on the presence or absence of principal cells arranged according to maturation of spermatogenesis. The basis of Johnsen's score in testes was the following:
10: Perfect spermatogenesis having many sperms, organization of embryonic epithelial cells with a constant thickness, and opened lumen
9: Despite many sperms, significant separation of embryonic epithelial cells from the basement membrane and disruption thereof, or loss of lumen
8: Presence of 5 to less than 10 sperms in the section
7: Many sperm cells without sperms
6: 5 to less than 10 sperm cells without sperms
5: Several or many spermatocytes without sperms and sperm cells
4: Less than 5 spermatocytes without sperms and sperm cells
3: Presence of only spermatogonia as reproductive cells
2: Presence of only Sertoli cells without any reproductive cells
1: No cells in the section of seminiferous tubules

C57B1/6J mice [2] = assay: Effect of UDCA on death (death rate, death time) of mice by a single subcutaneous injection of TCDD
Procedure: (§2) Male C57B1/6J mice of 5 weeks old having the average weight of 18-22 g which had been bred in CRJ (Charles River in Japan) were purchased and used in this example as experimental animals. Those mice were acclimated under the constant breeding condition, i.e. the temperature of 24±1° C., the humidity of 60±10% and the light and darkness cycle of 12 hours, for one week and thereafter, utilized in the experiment.
(§3) The Experimental animals were supplied with Purina powdered feed (purchased from Hae Eun Trade) and supplied with water ad libitum. All the animals were weighed twice a week during experimentation.
as §1
(§4) The results are expressed as Mean±Standard Deviation values. For statistical analysis of the body weight, feed and water uptake, biochemical findings, hematological findings and the weight of organ in an acute toxicity test, verification was performed by one way analysis of variance (ANOVA) in case of equal distribution. In case significance was recognized in ANOVA, the Student's t-test was performed in the levels of p<0.05 and p<0.01.

C57B1/6J mice [3] = assay: Changes in body weight of mice after a single subcutaneous injection of TCDD; settings: for Weight (body weight): at sacrifice
Procedure: as §2, §3, §1, §4

SMILES: Clc1cc2c(cc1Cl)Oc1cc(Cl)c(Cl)cc1O2 [TCDD, 2,3,7,8-tetrachlorodibenzo-p-dioxin]
- Johnsen's score of the testis tissue (C57B1/6J mice [1]; TCDD 6.9 μg/kg alone): 8.06 ± 0.09
- Johnsen's score of the testis tissue (C57B1/6J mice [1]; TCDD 27.5 μg/kg alone): 7.42 ± 0.11
- Death rate (C57B1/6J mice [2]; TCDD 6.9 μg/kg alone): 0%
- No. of dead mice/No. of administered mice (C57B1/6J mice [2]; TCDD 6.9 μg/kg alone): 0/10
- Death rate (C57B1/6J mice [2]; TCDD 27.5 μg/kg alone): 30%
- Death time (Mean ± SD) (C57B1/6J mice [2]; TCDD 27.5 μg/kg alone): 55 ± 5 days
- No. of dead mice/No. of administered mice (C57B1/6J mice [2]; TCDD 27.5 μg/kg alone): 3/10
- Death time (Mean ± SD) (C57B1/6J mice [2]; TCDD 110.0 μg/kg alone): 35 ± 7 days
- No. of dead mice/No. of administered mice (C57B1/6J mice [2]; TCDD 110.0 μg/kg alone): 10/10
- body weight (C57B1/6J mice [3]; TCDD 6.9 μg/kg alone, 0 day): 20.22 ± 0.31
- body weight (C57B1/6J mice [3]; TCDD 6.9 μg/kg alone, 12 days): 22.27 ± 0.37
- body weight (C57B1/6J mice [3]; TCDD 6.9 μg/kg alone, 22 days): 23.68 ± 0.36
- body weight (C57B1/6J mice [3]; TCDD 6.9 μg/kg alone, 32 days): 24.37 ± 0.48
- body weight (C57B1/6J mice [3]; TCDD 6.9 μg/kg alone, 39 days): 25.35 ± 0.66
- body weight (C57B1/6J mice [3]; TCDD 6.9 μg/kg alone, 50 days): 27.03 ± 1.35
- body weight (C57B1/6J mice [3]; TCDD 6.9 μg/kg alone, 59 days): 25.98 ± 1.44
- Weight (body weight) (C57B1/6J mice [3]; TCDD 6.9 μg/kg alone): 22.96 ± 3.97 g
- body weight (C57B1/6J mice [3]; TCDD 27.5 μg/kg alone, 0 day): 19.54 ± 0.22
- body weight (C57B1/6J mice [3]; TCDD 27.5 μg/kg alone, 12 days): 20.91 ± 0.52
- body weight (C57B1/6J mice [3]; TCDD 27.5 μg/kg alone, 22 days): 19.82 ± 1.14
- body weight (C57B1/6J mice [3]; TCDD 27.5 μg/kg alone, 32 days): 18.54 ± 1.16
- body weight (C57B1/6J mice [3]; TCDD 27.5 μg/kg alone, 39 days): 17.80 ± 1.40
- body weight (C57B1/6J mice [3]; TCDD 27.5 μg/kg alone, 50 days): 16.74 ± 1.22
- body weight (C57B1/6J mice [3]; TCDD 27.5 μg/kg alone, 59 days): 15.72 ± 1.17
- Weight (body weight) (C57B1/6J mice [3]; TCDD 27.5 μg/kg alone): 16.18 ± 2.51 g
- body weight (C57B1/6J mice [3]; TCDD 110.0 μg/kg alone, 0 day): 19.36 ± 0.31
- body weight (C57B1/6J mice [3]; TCDD 110.0 μg/kg alone, 12 days): 19.96 ± 0.32
- body weight (C57B1/6J mice [3]; TCDD 110.0 μg/kg alone, 22 days): 20.02 ± 0.47
- body weight (C57B1/6J mice [3]; TCDD 110.0 μg/kg alone, 32 days): 19.84 ± 0.55
- body weight (C57B1/6J mice [3]; TCDD 110.0 μg/kg alone, 39 days): 17.62 ± 1.14
